Test results reported in ChEMBL document CHEMBL1201862, “PubChem BioAssay data set” (2004).
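Exposure lasted 48 hours, with cells grown in 96-well plates and compounds tested at five concentrations. The concentration for 50% growth inhibition is given as GI50.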 Active and inactive are the calls of the source. Cut-off read from the data, not from the text of the source: active = GI50 up to about 1.1 µM and inactive = higher.

Experiments:
Assay in all cases: growth of human tumour cells (NCI), 48 h
[1] = test system: EKVX
[2] = test system: PC-3
[3] = test system: M19-MEL
[4] = test system: ACHN
[5] = test system: CAKI-1
[6] = test system: SF-539
[7] = test system: HT-29
[8] = test system: OVCAR-8
[9] = test system: Hs-578T
[10] = test system: HCT-15
[11] = test system: A498
[12] = test system: UACC-257
[13] = test system: HOP-62
[14] = test system: IGROV-1
[15] = test system: SK-OV-3
[16] = test system: SN12C
[17] = test system: MOLT-4
[18] = test system: HCC 2998
[19] = test system: T47D
[20] = test system: SK-MEL-2

Row | SMILES | GI50 [1] | GI50 [2] | GI50 [3] | GI50 [4] | GI50 [5] | GI50 [6] | GI50 [7] | GI50 [8] | GI50 [9] | GI50 [10] | GI50 [11] | GI50 [12] | GI50 [13] | GI50 [14] | GI50 [15] | GI50 [16] | GI50 [17] | GI50 [18] | GI50 [19] | GI50 [20]
1 | CCN(CC)CC(=O)O[C@]1(CC)C(=O)OCc2c1cc1n(c2=O)Cc2cc3ccccc3nc2-1 | 0.256 µM (active) | 0.054 µM (active) | 0.0902 µM (active) | < 0.01 µM (active) | < 0.01 µM (active) | < 0.0139 µM (active) | 0.0957 µM (active) | 0.0285 µM (active) | 3.21 µM (inactive) | 0.17 µM | 0.0583 µM (active) | 0.0798 µM (active) | < 0.01 µM (active) | 0.11 µM (active) | 0.0826 µM (active) | 0.0204 µM (active) | < 0.01 µM (active) | 0.149 µM (active) | < 0.01 µM (active) | 0.382 µM (active)
2 | Cc1cccc(N2C(=O)C(=O)C(c3nc4ccccc4s3)C(=O)C2=O)c1C | > 100 µM (inactive) |  | > 100 µM (inactive) | > 100 µM (inactive) | > 100 µM (inactive) | > 100 µM (inactive) | > 100 µM (inactive) | > 100 µM (inactive) |  | > 100 µM | > 100 µM (inactive) | > 100 µM (inactive) | > 100 µM (inactive) | > 100 µM (inactive) | > 100 µM (inactive) | > 100 µM (inactive) | > 100 µM (inactive) | > 100 µM (inactive) |  | > 100 µM (inactive)
3 | CC(=O)/C(=N\O)C(=O)Nc1ccc(Cl)cc1Cl | > 100 µM (inactive) |  | > 100 µM (inactive) | > 100 µM (inactive) | > 100 µM (inactive) | > 100 µM (inactive) | > 100 µM (inactive) | > 100 µM (inactive) |  | > 100 µM | > 100 µM (inactive) | > 100 µM (inactive) | > 100 µM (inactive) | > 100 µM (inactive) | > 100 µM (inactive) | > 100 µM (inactive) | > 100 µM (inactive) | > 100 µM (inactive) |  | > 100 µM (inactive)
4 | Cc1c(C(=O)C/C(=N/NC(=O)c2ccccc2O)C(=O)Nc2ccccc2C(C)C)[n+]([O-])c2ccccc2[n+]1[O-] | 47.4 µM (inactive) |  | 46.5 µM (inactive) | 36.6 µM (inactive) | 30.8 µM (inactive) | 40.6 µM (inactive) | 43.6 µM (inactive) | 29.6 µM (inactive) |  | 30.3 µM | > 100 µM (inactive) | 28.1 µM (inactive) | > 100 µM (inactive) | 28.3 µM (inactive) | > 100 µM (inactive) | 43.8 µM (inactive) | 3.2 µM (inactive) | 52.5 µM (inactive) |  | 0.0522 µM (active)
5 | CCCCCCCCCCC(=O)CCCCCCC(=O)O | 31.8 µM (inactive) |  | 27 µM (inactive) | 21.5 µM (inactive) | 30.5 µM (inactive) | 18.1 µM (inactive) | 18.5 µM (inactive) | 17.8 µM (inactive) |  | 13.5 µM | 20.1 µM (inactive) | 82.6 µM (inactive) | 25.4 µM (inactive) | 19.2 µM (inactive) | 53.8 µM (inactive) | 27.3 µM (inactive) | 15.1 µM (inactive) | 17.1 µM (inactive) |  | 25.8 µM (inactive)
6 | COc1cc([C@@H]2c3cc4c(cc3[C@@H](NC(=O)c3ccc(OC(C)=O)cc3)C3COC(=O)[C@@H]32)OCO4)cc(OC)c1O (stereo not given in full) | 4.18 µM (inactive) |  | 8.71 µM (inactive) | 0.689 µM (active) | 1.92 µM (inactive) | 0.406 µM (active) | 5.01 µM (inactive) | 2.48 µM (inactive) |  | 9.95 µM | 2.22 µM (inactive) | 8.32 µM (inactive) | 0.714 µM (active) | 0.258 µM (active) | 2.47 µM (inactive) | 1 µM (active) | 0.0298 µM (active) | 3.27 µM (inactive) |  | 5.57 µM (inactive)
7 | CN(C)CC1CCCC/C1=N\OC(=O)c1ccccc1 (stereo not given) | > 100 µM (inactive) |  | > 100 µM (inactive) | > 100 µM (inactive) | > 100 µM (inactive) | > 100 µM (inactive) | > 100 µM (inactive) | > 100 µM (inactive) |  | > 100 µM | > 100 µM (inactive) | > 100 µM (inactive) | > 100 µM (inactive) | > 100 µM (inactive) | > 100 µM (inactive) | > 100 µM (inactive) | > 100 µM (inactive) | > 100 µM (inactive) |  | > 100 µM (inactive)
8 | COc1cc2cc3c4cc(OC)c(OC)cc4cc[n+]3c(C)c2cc1OC.O=C([O-])CS(=O)(=O)O | > 100 µM (inactive) | 74.5 µM (inactive) | 69 µM (inactive) | > 100 µM (inactive) | > 100 µM (inactive) | 42.7 µM (inactive) | 53.3 µM (inactive) | 24.3 µM (inactive) | 20.7 µM (inactive) | > 100 µM | 22.3 µM (inactive) | 39.7 µM (inactive) | 42.8 µM (inactive) | 80.9 µM (inactive) | > 100 µM (inactive) | 3.27 µM (inactive) | > 100 µM (inactive) | > 100 µM (inactive) | 26.8 µM (inactive) | > 100 µM (inactive)
9 | O=c1cc(-c2ccccc2F)[nH]c2cc3c(cc12)OCO3 |  | 0.0495 µM (active) | 0.236 µM (active) | 0.149 µM (active) |  | 0.0702 µM (active) | 0.0942 µM (active) | 0.265 µM (active) | 0.0728 µM (active) | 0.0417 µM | 0.0724 µM (active) | 1.2 µM (inactive) | 0.19 µM (active) | 0.118 µM (active) | 0.201 µM (active) | 0.281 µM (active) | 0.245 µM (active) | 0.107 µM (active) | > 100 µM (inactive) | 0.1 µM (active)
